Data reported in ChEMBL document CHEMBL5518159, “Thiazole-based analogues as potential antibacterial agents against methicillin-resistant Staphylococcus aureus (MRSA) and their SAR elucidation” (Eur J Med Chem, 2023).
Values after ≈ are worked out from the molar mass of the structure shown.

Key:
Format in all cases: functional
[1] = tested on: Staphylococcus aureus; assay: Antimicrobial activity against Methicillin-resistant Staphylococcus aureus ATCC 43300 assessed as bacterial growth inhibition incubated for 18 hrs by broth micro-dilution method
[2] = tested on: Staphylococcus aureus; assay: Antibacterial activity against Methicillin-sensitive Staphylococcus aureus ATCC 25923 assessed as reduction in bacterial growth incubated for 24 hrs by CLSI based broth microdilution method
[3] = tested on: Staphylococcus aureus; assay: Antibacterial activity against Methicillin-sensitive Staphylococcus aureus ATCC 25923 assessed as reduction in microbial growth by CLSI based broth microdilution method
[4] = tested on: Staphylococcus aureus; assay: Antibacterial activity against Methicillin-resistant Staphylococcus aureus ATCC 43300 assessed as reduction in bacterial growth measured for 24 hrs by CLSI based broth microdilution method
[5] = tested on: Staphylococcus aureus; assay: Antibacterial activity against methicillin-resistant Staphylococcus aureus ATCC 43300 assessed as reduction in bacterial growth by CLSI protocol based broth microdilution method
[6] = tested on: Staphylococcus aureus; assay: Antibacterial activity against methicillin-resistant Staphylococcus aureus ATCC 43300 assessed as bacterial growth inhibition incubated for 24 hrs by broth dilution method
[7] = tested on: Staphylococcus aureus; assay: Antibacterial activity against methicillin-resistant Staphylococcus aureus ATCC 33592 assessed as reduction in microbial growth incubated for 16 to 20 hrs by CLSI based two-fold serial dilution method; details: time 16-20 hrs
[8] = tested on: Staphylococcus aureus; assay: Antibacterial activity against Methicillin-resistant Staphylococcus aureus assessed as reduction of microbial growth by Muller Hinton broth based dilution assay
[9] = tested on: Staphylococcus aureus; assay: Antibacterial activity against methicillin-resistant Staphylococcus aureus assessed as reduction in microbial growth by CLSI based broth microdilution method
[10] = tested on: Staphylococcus aureus; assay: Antibacterial activity against clinical isolate Methicillin resistant Staphylococcus aureus 2658 RCMB assessed as reduction in microbial growth incubated for 16 to 24 hrs by CLSI-based Muller Hinton broth based microdilution method; details: time 16-24 hrs
[11] = tested on: Staphylococcus aureus; assay: Antibacterial activity against Methicillin-resistant Staphylococcus aureus AUMC 261 assessed as bacterial growth inhibition incubated for 24 hrs by broth microdilution analysis
[12] = tested on: Escherichia coli; assay: Antibacterial activity against Escherichia coli ATCC 25922 assessed as reduction in bacterial growth incubated for 18 to 24 hrs by broth microdilution method; details: time 18-24 hrs
[13] = tested on: Staphylococcus aureus; assay: Antibacterial activity against Methicillin-resistant Staphylococcus aureus […] assessed as reduction in microbial growth incubated for 18 to 24 hrs by broth micro-dilution method; details: time 18-24 hrs
[14] = tested on: Escherichia coli; assay: Antibiofilm activity against Escherichia coli ATCC 25922 assessed as reduction in biofilm formation at 50 uM incubated for 24 hrs by crystal violet staining based analysis relative to control; set-up: scale not given: the % may be the effect or the level left
[15] = tested on: Staphylococcus aureus; assay: Antibacterial activity against methicillin-resistant Staphylococcus aureus assessed as inhibition of bacterial growth measured after 24 hrs by broth micro-dilution method
[16] = tested on: Staphylococcus aureus; assay: Antibacterial activity against vancomycin-resistant Staphylococcus aureus assessed as bacterial growth inhibition incubated for 18 to 24 hrs by CLSI-based microdilution method; details: time 18-24 hrs
[17] = tested on: Staphylococcus aureus; assay: Antibacterial activity against […] Staphylococcus aureus ATCC 29213 assessed as reduction in bacterial growth incubated for 16 to 20 hrs by CLSI based two-fold serial dilution method; details: time 16-20 hrs
[18] = tested on: Escherichia coli; assay: Antibacterial activity against Escherichia coli ATCC 35210 assessed as reduction in microbial growth

Row | SMILES | MIC [5] | MBC [6] | other results
1 | N#C/C(C(=O)NCc1ccco1)=C1/SC(Cc2ccc(Cl)cc2)C(=O)N1c1ccccc1 (stereo not given) |  |  | MIC [1]: 4 µg/mL (≈ 8.62 µM)
2 | CC(=O)c1sc(-c2cccnc2)nc1C |  |  | MIC50 [2]: 2 µg/mL (≈ 9.16 µM); MIC90 [3]: 4 µg/mL; MIC50 [4]: 4 µg/mL (≈ 18.3 µM)
3 | O=C1CSC(c2ccc([N+](=O)[O-])cc2)N1c1nc2ccc(OC(F)(F)F)cc2s1 (stereo not given) | 250 µg/mL (≈ 566 µM) | 120 µg/mL (≈ 272 µM) | 
4 | O=C1CSC(c2cccc(Cl)c2Cl)N1c1nc2ccc(OC(F)(F)F)cc2s1 (stereo not given) | 250 µg/mL (≈ 537 µM) | 120 µg/mL (≈ 258 µM) | 
5 | O=C1CSC(c2c(F)cccc2F)N1c1nc2ccc(OC(F)(F)F)cc2s1 (stereo not given) | 250 µg/mL (≈ 578 µM) | 120 µg/mL (≈ 278 µM) | 
6 | O=C1CSC(c2ccc(O)cc2)N1c1nc2ccc(OC(F)(F)F)cc2s1 (stereo not given) | 250 µg/mL (≈ 606 µM) | 120 µg/mL (≈ 291 µM) | 
7 | O=C1CSC(c2ccc(Cl)cc2Cl)N1c1nc2ccc(OC(F)(F)F)cc2s1 (stereo not given) | 250 µg/mL (≈ 537 µM) | 120 µg/mL (≈ 258 µM) | 
8 | CCn1cc(-c2csc(N)n2)c(=O)c2cc(F)c(N3CCN(Cc4ccc(Cl)cc4)CC3)cc21 |  |  | MIC [7]: 8 µg/mL
9 | CCn1cc(-c2csc(N)n2)c(=O)c2cc(F)c(N3CCN(Cc4ccc(Cl)cc4Cl)CC3)cc21 |  |  | MIC [7]: 8 µg/mL
10 | O=C1CSC(c2c(Cl)cccc2Cl)N1c1nc2ccc(OC(F)(F)F)cc2s1 (stereo not given) | 250 µg/mL (≈ 537 µM) | 120 µg/mL (≈ 258 µM) | 
11 | O=C1CSC(c2ccc(F)cc2)N1c1nc2ccc(OC(F)(F)F)cc2s1 (stereo not given) | 250 µg/mL (≈ 603 µM) | 120 µg/mL (≈ 290 µM) | 
12 | CCn1cc(-c2csc(N)n2)c(=O)c2cc(F)c(N3CCN(Cc4ccc(Cl)c(Cl)c4)CC3)cc21 |  |  | MIC [7]: 8 µg/mL
13 | O=C1CSC(c2ccc(Cl)cc2)N1c1nc2ccc(OC(F)(F)F)cc2s1 (stereo not given) | 250 µg/mL (≈ 580 µM) | 120 µg/mL (≈ 279 µM) | 
14 | O=C1CSC(c2c(F)cccc2Cl)N1c1nc2ccc(OC(F)(F)F)cc2s1 (stereo not given) | 250 µg/mL (≈ 557 µM) | 120 µg/mL (≈ 267 µM) | 
15 | COc1ccc(/C=C(\Oc2ccc3c(CN(CCO)CCO)cc(=O)oc3c2)C(=O)c2nccs2)cc1 |  |  | MIC [8]: 2 µg/mL
16 | O=C(/C(=C/c1ccccc1Cl)n1cnc2cc(Cl)ccc2c1=O)c1nccs1 |  |  | MIC [9]: 2 µg/mL
17 | Cc1nc(-c2ccc3ccccc3c2)sc1-c1nnc(NC(=N)N)o1 |  |  | MIC [10]: 1.9 µg/mL
18 | O=C(O)c1cn(C2CC2)c2cc(N3CCN(C(=O)CN4C(=O)S/C(=C\c5ccccc5)C4=O)CC3)c(F)cc2c1=O |  |  | MIC [11]: 2.88 µg/mL (≈ 4.99 µM)
19 | CCOC1=NC(=N/N=C2\C(=O)Nc3ccc(Br)cc32)/S/C1=N/Nc1ccc([N+](=O)[O-])cc1 |  |  | MIC [12]: 8 µg/mL (≈ 15.5 µM); MIC [13]: 8 µg/mL; Activity [14]: 90%
20 | Cc1cnc(/C=c2\[nH]c(=O)/c(=C\c3ccc(Br)cc3)s2)s1 |  |  | MIC [15]: 40 µg/mL (≈ 105 µM)
21 | O=C(O)CCN(c1ccc(Nc2ccccc2)cc1)c1nc(-c2ccc(Cl)cc2)cs1 |  |  | MIC [16]: 1 µg/mL (≈ 2.22 µM)
22 | Cc1ccc(C2SCC(=O)N2c2nc3ccc(OC(F)(F)F)cc3s2)cc1 (stereo not given) | 250 µg/mL (≈ 609 µM) | 120 µg/mL (≈ 292 µM) | 
23 | Cc1cnc(/C=c2\[nH]c(=O)/c(=C\c3cccc(Br)c3)s2)s1 |  |  | MIC [15]: 40 µg/mL (≈ 105 µM)
24 | O=C(O)c1cn(C2CC2)c2cc(N3CCN(C(=O)CN4C(=O)S/C(=C\c5ccoc5)C4=O)CC3)c(F)cc2c1=O |  |  | MIC [11]: 2.88 µg/mL (≈ 5.08 µM)
25 | CCCCCCNc1ccc(S(=O)(=O)CC(=O)c2nccs2)cc1 |  |  | MIC [17]: 1 µg/mL (≈ 2.73 µM)
26 | CCc1nc(N2CCN(CC(=O)Nc3nccs3)CC2)c(C#N)c2c1COC(C)(C)C2 |  |  | MIC [18]: 230 µg/mL
